The record followed here is ChEMBL document CHEMBL4138190, “Anti-amyloidogenic and anti-apoptotic effect of α-bisabolol against Aβ induced neurotoxicity in PC12 cells” (Eur J Med Chem, 2018).

Structures are written as SMILES. Calls of active or inactive are those of the source. No cut-off for these calls is given here. Bounds are passed on as bounds.

The target of assay [1] is Amyloid-beta precursor protein (Homo sapiens) (UniProt P05067). The assay can be described thus: Inhibition of amyloid beta (25 to 35 residues) (unknown origin) aggregation at 50 ug/ml after 24 to 48 hrs by thioflavin T dye based confocal laser scanning microscopy.
Sequence of Amyloid-beta precursor protein (Homo sapiens) (P05067 whole entry, the tested form may be a part): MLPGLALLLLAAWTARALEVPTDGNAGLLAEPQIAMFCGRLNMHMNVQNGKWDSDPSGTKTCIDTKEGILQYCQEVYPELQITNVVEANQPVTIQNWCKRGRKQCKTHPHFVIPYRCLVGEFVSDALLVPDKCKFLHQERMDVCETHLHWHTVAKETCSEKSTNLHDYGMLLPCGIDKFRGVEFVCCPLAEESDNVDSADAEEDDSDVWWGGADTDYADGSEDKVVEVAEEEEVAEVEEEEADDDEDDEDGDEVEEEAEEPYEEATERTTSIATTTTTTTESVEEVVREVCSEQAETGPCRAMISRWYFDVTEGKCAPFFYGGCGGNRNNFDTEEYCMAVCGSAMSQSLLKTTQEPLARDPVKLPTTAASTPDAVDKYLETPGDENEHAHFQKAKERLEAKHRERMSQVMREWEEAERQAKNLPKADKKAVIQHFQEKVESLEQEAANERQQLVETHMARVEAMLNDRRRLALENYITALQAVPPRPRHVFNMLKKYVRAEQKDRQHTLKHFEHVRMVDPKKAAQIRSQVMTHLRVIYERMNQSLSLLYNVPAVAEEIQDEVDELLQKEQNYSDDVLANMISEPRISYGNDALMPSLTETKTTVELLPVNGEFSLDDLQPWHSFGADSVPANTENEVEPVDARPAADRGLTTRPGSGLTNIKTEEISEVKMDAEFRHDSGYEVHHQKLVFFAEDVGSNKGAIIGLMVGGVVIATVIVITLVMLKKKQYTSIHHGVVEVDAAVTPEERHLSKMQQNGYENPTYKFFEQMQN
For assay [2] the target is unchanged. The experiment in a line: Disaggregation of amyloid beta (25 to 35 residues) (unknown origin) preformed fibrils at 50 ug/ml after 96 hrs to 9 days by thioflavin T dye based confocal laser scanning microscopy.
Assay [3] shares this target. The experiment in a line: Inhibition of amyloid beta (25 to 35 residues) (unknown origin) aggregation at 50 ug/ml after 24 to 48 hrs by FTIR spectroscopy.
For assay [4] the target is unchanged. The experiment in a line: Disaggregation of amyloid beta (25 to 35 residues) (unknown origin) preformed fibrils at 50 ug/ml after 96 hrs to 9 days by FTIR spectroscopy.
Assay [5] shares this target. The experiment in a line: Disaggregation of amyloid beta (25 to 35 residues) (unknown origin) preformed fibrils at 50 ug/ml after 96 hrs to 9 days by ThT-based fluorescence spectroscopic method.
Assay [6] shares this target. The assay can be described thus: Inhibition of amyloid beta (25 to 35 residues) (unknown origin) aggregation at 5 ug/ml after 24 to 48 hrs by ThT-based fluorescence spectroscopic method.
For assay [7] the target is unchanged. The experiment in a line: Disaggregation of amyloid beta (25 to 35 residues) (unknown origin) preformed fibrils at 5 ug/ml after 96 hrs to 9 days by ThT-based fluorescence spectroscopic method.
Assay [8] has the same target. The assay can be described thus: Inhibition of amyloid beta (25 to 35 residues) (unknown origin) aggregation at 5 ug/ml after 24 to 48 hrs by thioflavin T dye based confocal laser scanning microscopy.
For assay [9] the target is unchanged. The assay can be described thus: Disaggregation of amyloid beta (25 to 35 residues) (unknown origin) preformed fibrils at 5 ug/ml after 96 hrs to 9 days by thioflavin T dye based confocal laser scanning microscopy.
The target is the same in assay [10]. The experiment in a line: Inhibition of amyloid beta (25 to 35 residues) (unknown origin) aggregation at 5 ug/ml after 24 to 48 hrs by phosphotungstic acid staining based transmission electron microscopy.
Assay [11] shares this target. The experiment in a line: Disaggregation of amyloid beta (25 to 35 residues) (unknown origin) preformed fibrils at 5 ug/ml after 96 hrs to 9 days by phosphotungstic acid staining based transmission electron microscopy.
The target is the same in assay [12]. The assay can be described thus: Inhibition of amyloid beta (25 to 35 residues) (unknown origin) aggregation at 5 ug/ml after 24 to 48 hrs by FTIR spectroscopy.
The target is the same in assay [13]. The assay can be described thus: Disaggregation of amyloid beta (25 to 35 residues) (unknown origin) preformed fibrils at 5 ug/ml after 96 hrs to 9 days by FTIR spectroscopy.
For assay [14] the target is unchanged. The assay can be described thus: Inhibition of amyloid beta (25 to 35 residues) (unknown origin)-induced toxicity in rat PC12 cells assessed as protection against amyloid beta (25 to 35 residues)-induced apoptosis by measuring viable cells at 5 ug/ml by Annexin V-FITC/propidium iodide staining-based flow cytometric method (reference value: 48.71%). The class given is cell-based. A general note: Flow cytometry measures light scatter and fluorescence of single cells or particles in a stream.

The target is the same in assay [15]. The assay can be described thus: Inhibition of amyloid beta (25 to 35 residues) (unknown origin)-induced toxicity in rat PC12 cells assessed as increase in cell viability at 2 to 10 ug/ml preincubated for 2 hrs followed by amyloid beta (25 to 35 residues) addition measured after 24 hrs by MTT dye based light microscopic assay (reference value: 48%).
Another assay addresses Acetylcholinesterase (Homo sapiens, UniProt P22303). The assay can be described thus: Inhibition of AChE (unknown origin) preincubated for 45 mins followed by ATCI substrate addition measured for 3 mins.
Assay [16] has as its target Amyloid-beta precursor protein (Homo sapiens) (UniProt P05067). The assay can be described thus: Inhibition of amyloid beta (25 to 35 residues) (unknown origin)-induced toxicity in rat PC12 cells assessed as protection against amyloid beta (25 to 35 residues)-induced apoptosis by measuring early apoptotic cells at 5 ug/ml by Annexin V-FITC/propidium iodide staining-based flow cytometric method (reference value: 46%). The arrangement: scale not given: the % may be the effect or the level left. The class given is cell-based.

Assay [17] has the same target. The experiment in a line: Inhibition of amyloid beta (25 to 35 residues) (unknown origin)-induced toxicity in rat PC12 cells assessed as protection against amyloid beta (25 to 35 residues)-induced apoptosis by measuring late apoptotic cells at 5 ug/ml by Annexin V-FITC/propidium iodide staining-based flow cytometric method (reference value: 4.56%). The class given is cell-based. The arrangement: scale not given: the % may be the effect or the level left.

The target is the same in assay [18]. The assay can be described thus: Inhibition of amyloid beta (25 to 35 residues) (unknown origin)-induced toxicity in rat PC12 cells assessed as protection against amyloid beta (25 to 35 residues)-induced apoptosis by measuring necrotic cells at 5 ug/ml by Annexin V-FITC/propidium iodide staining-based flow cytometric method (reference value: 0.73%). Also on record: scale not given: the % may be the effect or the level left. The class given is cell-based.

For assay [19] the target is unchanged. The experiment in a line: Inhibition of amyloid beta (25 to 35 residues) (unknown origin)-induced toxicity in rat PC12 cells assessed as cell survival at 5 ug/ml after 1 to 3 weeks by clonogenic assay (reference value: 25%). The class given is cell-based.
Assay [20] has the same target. The assay can be described thus: Inhibition of amyloid beta (25 to 35 residues) (unknown origin)-induced toxicity in rat PC12 cells assessed as increase in cell viability at 50 ug/ml preincubated for 2 hrs followed by amyloid beta (25 to 35 residues) addition measured after 24 hrs by MTT dye based light microscopic assay (reference value: 48%). As to conditions: at 50 µg/mL.

Assay [21] shares this target. The experiment in a line: Inhibition of amyloid beta (25 to 35 residues) (unknown origin)-induced toxicity in rat PC12 cells assessed as protection against amyloid beta (25 to 35 residues)-induced apoptosis by measuring viable cells at 50 ug/ml by Annexin V-FITC/propidium iodide staining-based flow cytometric method (reference value: 48.71%). Type of assay: cell-based. As to conditions: at 50 µg/mL.

Assay [22] has the same target. The assay can be described thus: Inhibition of amyloid beta (25 to 35 residues) (unknown origin)-induced toxicity in rat PC12 cells assessed as protection against amyloid beta (25 to 35 residues)-induced apoptosis by measuring early apoptotic cells at 50 ug/ml by Annexin V-FITC/propidium iodide staining-based flow cytometric method (reference value: 46%). Type of assay: cell-based. The arrangement: scale not given: the % may be the effect or the level left. The note with it: at 50 µg/mL.

The target is the same in assay [23]. The assay can be described thus: Inhibition of amyloid beta (25 to 35 residues) (unknown origin)-induced toxicity in rat PC12 cells assessed as protection against amyloid beta (25 to 35 residues)-induced apoptosis by measuring late apoptotic cells at 50 ug/ml by Annexin V-FITC/propidium iodide staining-based flow cytometric method (reference value: 4.56%). Type of assay: cell-based. The arrangement: scale not given: the % may be the effect or the level left. The note with it: at 50 µg/mL.

For assay [24] the target is unchanged. The assay can be described thus: Inhibition of amyloid beta (25 to 35 residues) (unknown origin)-induced toxicity in rat PC12 cells assessed as protection against amyloid beta (25 to 35 residues)-induced apoptosis by measuring necrotic cells at 50 ug/ml by Annexin V-FITC/propidium iodide staining-based flow cytometric method (reference value: 0.73%). The class given is cell-based. Also on record: scale not given: the % may be the effect or the level left. The note with it: at 50 µg/mL.

For assay [25] the target is unchanged. The note with it: at 50 µg/mL.
Description: Inhibition of amyloid beta (25 to 35 residues) (unknown origin)-induced toxicity in rat PC12 cells assessed as cell survival at 50 ug/ml after 1 to 3 weeks by clonogenic assay (Rvb = 25%)

Sequence of Acetylcholinesterase (P22303 whole entry, the tested form may be a part): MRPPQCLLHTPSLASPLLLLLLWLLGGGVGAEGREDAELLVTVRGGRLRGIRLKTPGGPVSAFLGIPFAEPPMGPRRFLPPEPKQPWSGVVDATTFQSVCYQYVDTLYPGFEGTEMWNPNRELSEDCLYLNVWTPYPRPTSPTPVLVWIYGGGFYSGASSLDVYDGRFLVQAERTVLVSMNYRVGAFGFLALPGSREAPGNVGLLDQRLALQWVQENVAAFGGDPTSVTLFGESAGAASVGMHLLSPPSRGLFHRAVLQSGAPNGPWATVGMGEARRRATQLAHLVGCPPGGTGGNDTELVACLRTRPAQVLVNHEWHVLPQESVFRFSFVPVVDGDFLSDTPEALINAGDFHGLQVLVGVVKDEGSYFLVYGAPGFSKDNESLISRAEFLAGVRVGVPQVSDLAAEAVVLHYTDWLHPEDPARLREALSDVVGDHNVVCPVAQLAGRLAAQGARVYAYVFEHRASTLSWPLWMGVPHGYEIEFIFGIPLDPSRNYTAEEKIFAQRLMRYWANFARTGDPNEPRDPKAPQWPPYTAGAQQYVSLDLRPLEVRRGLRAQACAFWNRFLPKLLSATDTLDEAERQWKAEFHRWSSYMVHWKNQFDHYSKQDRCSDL

Regarding `COc1ccc2c3c1O[C@H]1C[C@@H](O)C=C[C@@]31CCN(C)C2`, the inhibition result in [1] and in assay [3] was “Active” throughout. Further, the result in assay [2], in assay [4] and in assay [5] was Active.

Take `CC(C)=CCC[C@@](C)(O)[C@H]1CC=C(C)CC1`: the inhibition entry in [6], in assay [8], in assay [10] and in assay [12] was “Active” each time. Further, the outcome in assay [7], in assay [9], in [11] and in [13] was Active. In addition, the Activity was 97.8% in [14]; more than 80% in assay [15]; 1.32% in [16]; 0.31% in assay [17]; 0.62% in assay [18]. In addition, at Acetylcholinesterase, the concentration for half-maximal inhibition (IC50) (usually the midpoint of a concentration-inhibition curve) is less than 45 µM. For the same molecule, the Survival in assay [19] stood at 96%.

With `COc1cc2c(cc1OC)C(=O)C(CC1CCN(Cc3ccccc3)CC1)C2` (stereo unspecified), the Activity amounted to 81% in [20]; 96.2% in assay [21]; 1.58% in [22]; 0.26% in assay [23]; 2% in assay [24]. The same molecule displayed a Survival in assay [25] of 96%.
